Laboratory results published in US10239876B2, “Triaza-spirodecanones as DDR1 inhibitors” (Hoffmann La-Roche Inc., priority 2015, dated 2019).

Target: intracellular domain of the DDR1 protein (Homo sapiens (Human), UniProt Q08345)
Assay: In vitro binding competition assay for DDR1 (Eu-labeled anti-GST antibody / tracer FRET)
Conditions: recombinant GST-tagged protein, one hour incubation at room temperature
From the text: This assay is based on the intracellular domain of the DDR1 protein which contains the kinase active site. The recombinant protein additionally carries a GST-tag that can be recognized by an Eu-labeled anti-GST antibody. […] Excitation energy absorbed by the Europium complex (350 nm flash light or pulsed laser) is transferred to a suitable fluorescent dye, if it is in close proximity. Compounds binding competitively with the tracer molecule will displace the bound tracer molecules and reduce the FRET signal in a dose dependent manner. Due to the long lifetime of the Eu excited state, the emission of the donor and the acceptor can be measured in time-gated mode such that most of the intrinsic fluorescence contributions have already decayed. […] This sensitive detection method enables protein concentrations below 20 nM.
Protein, tracer and labeled antibody were obtained from commercial sources. […] Dose response curves were generated from 16 compound dilutions in DMSO as solvent compound dilutions, a solution containing protein and labeled antibody, and a solution containing the tracer which is added in the last step. The fluorescence of donor and acceptor were then measured after one hour incubation at room temperature. Every assay run was quality-controlled with dose response curves for two reference compounds.

intracellular domain of the DDR1 protein, sequence (Q08345 439-913): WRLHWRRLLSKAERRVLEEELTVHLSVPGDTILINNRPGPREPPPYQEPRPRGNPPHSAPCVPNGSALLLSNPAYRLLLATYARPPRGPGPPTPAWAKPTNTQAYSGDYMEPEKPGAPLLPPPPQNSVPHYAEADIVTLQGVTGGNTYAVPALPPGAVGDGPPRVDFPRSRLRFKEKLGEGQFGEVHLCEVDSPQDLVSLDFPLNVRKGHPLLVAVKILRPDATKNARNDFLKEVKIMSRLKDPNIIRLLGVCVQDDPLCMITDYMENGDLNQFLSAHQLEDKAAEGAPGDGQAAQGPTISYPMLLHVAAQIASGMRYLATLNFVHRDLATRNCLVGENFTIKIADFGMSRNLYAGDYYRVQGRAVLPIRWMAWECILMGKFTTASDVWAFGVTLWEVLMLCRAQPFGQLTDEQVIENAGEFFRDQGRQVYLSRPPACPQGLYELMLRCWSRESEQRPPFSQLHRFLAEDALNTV

| SMILES | IC50 |
| --- | --- |
| O=C(CN1CN(c2ccccc2)C2(CCN(C(=O)c3ccc4[nH]ncc4c3)CC2)C1=O)NCC(F)(F)F [Example 7, 2-(8-(1H-Indazole-5-carbonyl)-4-oxo-1-phenyl-1,3,8-triazaspiro[4.5]decan-3-yl)-N-(2,2,2-trifluoroethyl)acetamide] | 15.5 nM |
| O=C(CN1CN(c2ccccc2)C2(CCN(C(=O)c3ccc4[nH]ncc4n3)CC2)C1=O)NCC(F)(F)F [Example 91, 2-(4-Oxo-1-phenyl-8-(1H-pyrazolo[4,3-b]pyridine-5-carbonyl)-1,3,8-triazaspiro[4.5]decan-3-yl)-N-(2,2,2-trifluoroethyl)acetamide] | 19.4 nM |
